Experimental data reported in patent US7902354B2, “Lapachone compounds and methods of use thereof” (ArQule, Inc., priority 2006, dated 2011).
pIC50: −log10 of the molar value.

Columns and labels:
Assay type in all cases: cell-based
[1] = system: NCM-460 normal colon epithelial cells; assay: MTS cell viability assay, NCM-460 normal colon epithelial cells; conditions: for pIC50: Homo sapiens, NCM460, NCM-460, 4 h compound incubation, MTS, read-out: IC50 Values, Normal Cells, Colon NCM-460; for Fold Selectivity (NCM-460/DLD1): ratio of IC50 NCM-460 / DLD1
[2] = system: K-562 human leukemia cells; assay: MTS cell viability assay, K-562 human leukemia cells; conditions: K562, K-562, 4 h compound incubation, MTS, read-out: IC50 Values, Cancerous Cells, Leukemia K-562
[3] = system: DU-145 human prostate carcinoma cells; assay: MTS cell viability assay, DU-145 human prostate carcinoma cells; conditions: DU-145, 4 h compound incubation, MTS, read-out: IC50 Values, Cancerous Cells, Prostate DU-145
[4] = system: PACA-2 human pancreatic carcinoma cells; assay: MTS cell viability assay, PACA-2 human pancreatic carcinoma cells; conditions: PACA-2, 4 h compound incubation, MTS, read-out: IC50 Values, Cancerous Cells, Pancreas PACA-2
[5] = system: A549 human lung carcinoma cells; assay: MTS cell viability assay, A549 human lung carcinoma cells; conditions: A549, 4 h compound incubation, MTS, read-out: IC50 Values, Cancerous Cells, Lung A549
[6] = system: DLD-1 human colon carcinoma cells; assay: MTS cell viability assay, DLD-1 human colon carcinoma cells; conditions: DLD-1, 4 h compound incubation, MTS, read-out: IC50 Values, Cancerous Cells, Colon DLD-1

| SMILES | pIC50 [2] | pIC50 [3] | pIC50 [4] | pIC50 [5] | pIC50 [6] | pIC50 [1] | Fold Selectivity (NCM-460/DLD1) [1] |
| --- | --- | --- | --- | --- | --- | --- | --- |
| O=C1C(=O)c2ccccc2C2=C1SCC1(CCN(C3CCCCC3)CC1)O2 [Compound 258, 1′-cyclohexylspiro[naphtho[1,2-b][1,4]oxathiine-2,4′-piperidine]-5,6-dione] | 5.83 | 5.41 | 5.70 | 5.27 | 5.83 | 5.23 | 4.0 |
| O=C1C(=O)c2ccccc2C2=C1SCC1(CCN(Cc3ccccc3F)CC1)O2 [Compound 118, 1′-(2-fluorobenzyl)spiro[naphtho[1,2-b][1,4]oxathiine-2,4′-piperidine]-5,6-dione] | 5.41 | 5.30 | 5.64 | 5.00 | 5.62 | 5.08 | 3.4 |
| O=C1C(=O)c2ccccc2C2=C1SCC1(CCN(CCOc3ccc(Cl)cc3)CC1)O2 [Compound 145, 1′-[2-(4-chlorophenoxy)ethyl]spiro[naphtho[1,2-b][1,4]oxathiine-2,4′-piperidine]-5,6-dione] | 5.10 | 5.39 | 5.56 | 5.26 | 5.42 | 4.68 | 5.5 |
| O=C1C(=O)c2ccccc2C2=C1SCC1(CCN(C(=O)c3cnccc3C(=O)O)CC1)O2 [Compound 237, 3-[(5,6-dioxo-5,6-dihydro-1′H-spiro[naphtho[1,2-b][1,4]oxathiine-2,4′-piperidin]-1′-yl)carbonyl]isonicotinic acid] | 4.31 | 4.21 | 4.32 | < 4.00 | 4.18 | 4.03 | 1.4 |
| Cc1cc(C(=O)N2CCC3(CC2)CSC2=C(O3)c3ccccc3C(=O)C2=O)c(C)o1 [Compound 41, 1′-(2,5-dimethyl-3-furoyl)spiro[naphtho[1,2-b][1,4]oxathiine-2,4′-piperidine]-5,6-dione] | 5.84 | 5.51 | 5.83 | 5.32 | 5.80 | 5.24 | 3.7 |
| O=C1C(=O)c2ccccc2C2=C1SCC1(CCN(CC(O)COc3ccccc3)CC1)O2 (stereo not drawn) [Compound 158, 1′-(2-hydroxy-3-phenoxypropyl)spiro[naphtho[1,2-b][1,4]oxathiine-2,4′-piperidine]-5,6-dione] | 5.84 | 5.77 | 5.88 | 5.25 | 5.83 | 5.31 | 3.3 |
| Cc1ccccc1OCC(O)CN1CCC2(CC1)CSC1=C(O2)c2ccccc2C(=O)C1=O (stereo not drawn) [Compound 173, 1′-[2-hydroxy-3-(2-methylphenoxy)propyl]spiro[naphtho[1,2-b][1,4]oxathiine-2,4′-piperidine]-5,6-dione] | 5.39 | 5.53 | 5.85 | 5.15 | 5.83 | 4.99 | 6.9 |
| Cn1cnc(S(=O)(=O)N2CCC3(CC2)CSC2=C(O3)c3ccccc3C(=O)C2=O)c1 [Compound 79, 1′-[(1-methyl-1H-imidazol-4-yl)sulfonyl]spiro[naphtho[1,2-b][1,4]oxathiine-2,4′-piperidine]-5,6-dione] | 5.23 | 4.92 | 5.14 | 4.63 | 5.08 | 4.69 | 2.5 |
| COc1cccc(CN2CCC3(CC2)CSC2=C(O3)c3ccccc3C(=O)C2=O)c1 [Compound 121, 1′-(3-methoxybenzyl)spiro[naphtho[1,2-b][1,4]oxathiine-2,4′-piperidine]5,6-dione] | 5.39 | 5.26 | 5.43 | 5.03 | 5.40 | 4.96 | 2.8 |
| O=C1C(=O)c2ccc(F)cc2C2=C1SCC1(CCN(C(=O)Oc3cccc(C(F)(F)F)c3)CC1)O2 [Compound 100, 3-(trifluoromethyl)phenyl 9-fluoro-5,6-dioxo-5,6-dihydro-1′H-spiro[naphtho[1,2-b][1,4]oxathiine-2,4′-piperidine]-1′-carboxylate] | 5.86 | 5.86 | 5.88 | 5.10 | 5.95 | 5.25 | 5.0 |

More lines, main results first:

| pIC50 [2] | pIC50 [3] | pIC50 [4] | pIC50 [5] | pIC50 [6] | SMILES | pIC50 [1] | Fold Selectivity (NCM-460/DLD1) [1] |
| --- | --- | --- | --- | --- | --- | --- | --- |
| 5.82 | 5.56 | 5.90 | 5.12 | 5.87 | O=C1C(=O)c2ccccc2C2=C1SCC1(CCN(CC(O)c3ccccc3)CC1)O2 (stereo not drawn) [Compound 167, 1′-(2-hydroxy-2-phenylethyl)spiro[naphtho[1,2-b][1,4]oxathiine-2,4′-piperidine]-5,6-dione] | 5.43 | 2.7 |
| 5.41 | 4.84 | 5.08 | 4.81 | 5.39 | Cc1noc(C)c1C(=O)N1CCC2(CC1)CSC1=C(O2)c2ccccc2C(=O)C1=O [Compound 40, 1′-[(3,5-dimethylisoxazol-4-yl)carbonyl]spiro[naphtho[1,2-b][1,4]oxathiine-2,4′-piperidine]-5,6-dione] | 4.99 | 2.5 |
| 5.47 | 5.38 | 5.62 | 5.07 | 5.66 | Cc1cccc(C(=O)N2CCC3(CC2)CSC2=C(O3)c3ccccc3C(=O)C2=O)c1 [Compound 60, 1′-(3-methylbenzoyl)spiro[naphtho[1,2-b][1,4]oxathiine-2,4′-piperidine]-5,6-dione] | 4.98 | 4.8 |
| 5.26 | 5.03 | 5.36 | 5.04 | 5.37 | Cc1ccc(CN2CCC3(CC2)CSC2=C(O3)c3ccccc3C(=O)C2=O)cc1 [Compound 120, 1′-(4-methylbenzyl)spiro[naphtho[1,2-b][1,4]oxathiine-2,4′-piperidine]-5,6-dione] | 4.98 | 2.5 |
| 4.99 | 5.26 | 5.37 | < 4.00 | 4.94 | O=C1C(=O)c2ccccc2C2=C1SCC1(CCN(C(=O)c3cc4ccccc4s3)CC1)O2 [Compound 51, 1′-(1-benzothien-2-ylcarbonyl)spiro[naphtho[1,2-b][1,4]oxathiine-2,4′-piperidine]-5,6-dione] | 4.48 | 2.8 |
| 5.84 | 5.60 | 5.83 | 5.11 | 5.84 | O=C1C(=O)c2ccccc2C2=C1SCC1(CCN(C3CCCC3)CC1)O2 [Compound 138, 1′-cyclopentylspiro[naphtho[1,2-b][1,4]oxathiine-2,4′-piperidine]-5,6-dione] | 5.45 | 2.5 |
| 4.83 | 4.90 | 4.95 | 4.33 | 4.95 | O=C1C(=O)c2ccccc2C2=C1SCC1(CCN(S(=O)(=O)c3cccs3)CC1)O2 [Compound 78, 1′-(2-thienylsulfonyl)spiro[naphtho[1,2-b][1,4]oxathiine-2,4′-piperidine]-5,6-dione] | 4.52 | 2.7 |
| 5.65 | 5.38 | 5.83 | 4.87 | 5.43 | O=C1C(=O)c2ccccc2C2=C1SCC1(CCN(CC(O)CN3CCOCC3)CC1)O2 (stereo not drawn) [Compound 166, 1′-(2-hydroxy-3-morpholin-4-ylpropyl)spiro[naphtho[1,2-b][1,4]oxathiine-2,4′-piperidine]-5,6-dione] | 5.06 | 2.3 |
| 4.82 | 4.89 | 4.90 | 4.14 | 4.88 | Cc1cccc(CN2CCC3(CC2)CSC2=C(O3)c3ccccc3C(=O)C2=O)c1 [Compound 133, 1′-(3-methylbenzyl)spiro[naphtho[1,2-b][1,4]oxathiine-2,4′-piperidine]-5,6-dione] | 4.53 | 2.3 |
| 5.12 | 5.65 | 5.68 | 5.10 | 5.44 | CC(C)(C)c1ccc(OCC(O)CN2CCC3(CC2)CSC2=C(O3)c3ccccc3C(=O)C2=O)cc1 (stereo not drawn) [Compound 157, 1′-[3-(4-tert-butylphenoxy)-2-hydroxypropyl]spiro[naphtho[1,2-b][1,4]oxathiine-2,4′-piperidine]-5,6-dione] | 4.55 | 7.8 |
| 5.27 | 5.85 | 5.86 | 5.33 | 5.83 | CCc1ccc(OCC(O)CN2CCC3(CC2)CSC2=C(O3)c3ccccc3C(=O)C2=O)cc1 (stereo not drawn) [Compound 170, 1′-[3-(4-ethylphenoxy)-2-hydroxypropyl]spiro[naphtho[1,2-b][1,4]oxathiine-2,4′-piperidine]-5,6-dione] | 4.85 | 9.4 |
